From ChEMBL document CHEMBL1201862, “PubChem BioAssay data set” (2004)
Where a name gives a salt, the structure may show the parent alone. Activity calls are given as the source filed them.

Legend:
[1] = test system: Streptococcus sp. 'group A'; test: Streptococcus pyogenes SK(-)GAS viability under kanamycin – luminescence, BacTiterGlo, confirmation, counter-screen for streptokinase expression inhibitor project, dose response (AID 1900); assay type: functional, organism-based
[2] = biological target: T1, Streptokinase A (Streptococcus pyogenes serotype M1, UniProt P10520); test: viability-normalized secreted streptokinase activity reduction – plasminogen activation absorbance, OD405, dose response (AID 1914); assay type: functional, Streptococcus pyogenes M1 GAS;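 note: secreted streptokinase activity via plasminogen activation per viability signal from cell pellet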
T1 sequence (P10520 whole entry): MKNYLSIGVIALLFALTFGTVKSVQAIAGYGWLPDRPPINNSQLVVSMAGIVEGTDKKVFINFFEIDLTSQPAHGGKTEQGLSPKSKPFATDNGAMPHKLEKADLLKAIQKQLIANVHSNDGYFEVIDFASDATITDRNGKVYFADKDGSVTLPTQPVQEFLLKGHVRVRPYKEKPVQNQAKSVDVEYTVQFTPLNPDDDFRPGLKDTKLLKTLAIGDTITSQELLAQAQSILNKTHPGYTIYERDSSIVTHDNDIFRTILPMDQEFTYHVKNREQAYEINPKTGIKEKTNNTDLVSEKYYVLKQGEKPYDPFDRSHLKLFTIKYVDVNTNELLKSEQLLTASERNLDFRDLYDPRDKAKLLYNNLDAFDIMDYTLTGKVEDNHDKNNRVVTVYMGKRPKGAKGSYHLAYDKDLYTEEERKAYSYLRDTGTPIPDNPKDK

[3] = test system: Streptococcus; test: GAS UMAA2166 growth inhibition – luminescence, BacTiterGlo, counter-screen for streptokinase expression inhibitor project, dose response (AID 1915); assay type: functional, organism-based;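 note: potency for reduction of bacterial viability or growth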
[4] = Luminescence Cell-Based Dose Retest to Confirm Inhibitors of Cancer Stem Cells. [Related pubchem assays (depositor defined):AID2717, AID2721]; assay type: functional; settings: Homo sapiens
[5] = biological target: Trypsin (Sus scrofa, UniProt P00761); test: trypsin protease activity blockade – biochemical, quenched peptide fluorescence, cherry-pick, selectivity assay for Rce1 protease inhibitor project, dose response (AID 488789)
[6] = biological target: T2, CAAX prenyl protease 2 (Saccharomyces cerevisiae S288c, UniProt Q03530); assay type: biochemical
T2 sequence (Q03530 whole entry): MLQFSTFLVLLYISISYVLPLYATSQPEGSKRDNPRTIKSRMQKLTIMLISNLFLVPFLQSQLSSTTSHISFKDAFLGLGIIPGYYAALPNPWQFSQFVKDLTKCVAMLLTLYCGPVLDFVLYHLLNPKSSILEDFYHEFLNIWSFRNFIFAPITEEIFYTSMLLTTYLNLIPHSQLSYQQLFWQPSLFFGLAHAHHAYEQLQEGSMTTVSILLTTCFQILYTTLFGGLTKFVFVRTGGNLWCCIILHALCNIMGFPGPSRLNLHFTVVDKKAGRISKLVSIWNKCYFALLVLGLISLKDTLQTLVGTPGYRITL

[7] = biological target: CAAX prenyl protease 1 (Saccharomyces cerevisiae S288c, UniProt P47154); test: yeast CAAX protease Ste24 inhibition – biochemical, S. cerevisiae, plate reader, cherry-pick, dose response (AID 488815)
[8] = biological target: CAAX prenyl protease 2 (Homo sapiens, UniProt Q9Y256); test: inhibition of Ras-converting CAAX protease Rce1 – biochemical, yeast membranes, quenched-peptide fluorescence, cherry-pick, dose response (AID 588849)
[9] = NIH-3T3 fibroblast cytotoxicity, dose response, cytotoxicity control, cell-based, fluorescence, Alamar Blue, secondary assay (AID 2327); assay type: functional;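 note: NIH-3T3 mouse fibroblasts cultured with fluconazole at 8 µg/mL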
[10] = fluconazole-exposed Candida albicans growth modulators – fluorescence, retest, confirmation (AID 2467); assay type: functional, cell-based
[11] = biological target: Serine/threonine-protein phosphatase (Candida dubliniensis (strain CD36 / CBS 7987 / NCPF 3949 / NRRLY-17841) (Yeast), UniProt B9W6M3); test: blockers of CaCl2-induced CDRE-lacZ signaling – S. cerevisiae, luminescence, secondary, dose response (AID 2388); assay type: functional, cell-based;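 note: yeast reporter cells carrying a calcineurin-responsive lacZ construct stimulated with calcium chloride; luminescent beta-galactosidase reporter signal in whole cells rather than isolated phosphatase activity; potency for inhibition where a drop in reporter signal means calcineurin blockade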
[12] = test system: Vero; test: cells; assay type: functional; settings: Chlorocebus sabaeus
[13] = biological target: ATP-dependent molecular chaperone HSP82 (Candida albicans (strain WO-1) (Yeast), UniProt C4YTQ8); test: steroid-induced GRE reporter decrease in yeast – S. cerevisiae, luminescence, Hsp90 inhibitor project, dose response (AID 2400); assay type: functional, cell-based;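 note: beta-galactosidase luminescence from glucocorticoid response element reporter as proxy for Hsp90 function; inhibitor potency where signal loss means Hsp90 inhibition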
[14] = biological target: T3, Fatty acid synthase (Homo sapiens, UniProt P49327); test: inhibition of human FAS-TE enzyme activity – biochemical, endpoint fluorescence intensity, uHTS hits, dose response (AID 624327); assay type: functional;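 note: fluorescence from hydrolysis of an O-methyl fluorescein acyl ester substrate by the enzyme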
[15] = biological target: T3, Fatty acid synthase; test: inhibition of human FAS-TE enzyme activity – biochemical, kinetic fluorescence intensity, dose response (AID 624326); assay type: functional;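 note: rate of fluorescence rise from hydrolysis of a fluorogenic O-methyl fluorescein ester substrate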
[16] = biological target: NS3 (Hepatitis C virus, UniProt A3EZJ3); test: PubChem AID 2173; design: species or system Hepacivirus hominis
[17] = mitochondrial function rescue without frataxin homolog – Friedreich's ataxia, plus single-dose screen, dose response (AID 1465); assay type: functional;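 note: yeast depleted of Yfh1p frataxin homolog grown on glycerol needing respiration; WST-1 tetrazolium dye reduction as measure of cellular dehydrogenase metabolic activity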
[18] = biological target: T4, Rac GTPase-activating protein 1 (Homo sapiens, UniProt Q9H0H5); test: blockers of MgcRacGAP-driven Rac1 GTP hydrolysis – biochemical, ADP Hunter fluorescence, primary and confirmatory, confirmation (AID 624330); assay type: functional
T4 sequence (Q9H0H5 whole entry): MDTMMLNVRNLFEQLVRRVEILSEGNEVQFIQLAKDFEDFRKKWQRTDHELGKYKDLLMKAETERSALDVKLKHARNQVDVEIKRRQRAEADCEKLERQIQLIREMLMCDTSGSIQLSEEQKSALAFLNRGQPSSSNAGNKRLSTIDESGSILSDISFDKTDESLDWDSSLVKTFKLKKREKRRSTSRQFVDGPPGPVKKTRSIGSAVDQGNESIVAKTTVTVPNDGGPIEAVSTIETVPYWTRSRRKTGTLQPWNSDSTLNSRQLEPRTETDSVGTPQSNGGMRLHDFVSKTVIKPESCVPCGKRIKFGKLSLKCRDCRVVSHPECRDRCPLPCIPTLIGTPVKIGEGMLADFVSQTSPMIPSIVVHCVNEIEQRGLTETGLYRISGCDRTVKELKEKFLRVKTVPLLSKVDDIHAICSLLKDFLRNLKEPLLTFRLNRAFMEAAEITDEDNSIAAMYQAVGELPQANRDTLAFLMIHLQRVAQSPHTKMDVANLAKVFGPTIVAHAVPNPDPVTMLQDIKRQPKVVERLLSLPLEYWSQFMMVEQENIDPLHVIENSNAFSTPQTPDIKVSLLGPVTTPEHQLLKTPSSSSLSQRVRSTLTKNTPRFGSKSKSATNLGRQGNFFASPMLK

[19] = biological target: 1-phosphatidylinositol 4,5-bisphosphate phosphodiesterase gamma-1 (Homo sapiens, UniProt P19174); test: Counterscreen for inhibitors of phospholipase C isozymes (PLC-B3): Fluorescence-based biochemical high throughput dose response assay to identify inhibitors of phospholipase C isozymes (PLC-gamma1).
[20] = biological target: 1-phosphatidylinositol 4,5-bisphosphate phosphodiesterase beta-3 (Homo sapiens, UniProt Q01970); test: Fluorescence-based biochemical high throughput dose response assay to identify inhibitors of phospholipase C isozymes (PLC-B3).
[21] = test system: Escherichia coli; test: microbe, parasite or virus in culture
[22] = test system: Escherichia coli; test: microbe, parasite or virus in culture; remark: listed apart in the source

Sequence of CAAX prenyl protease 2 (Homo sapiens, UniProt Q9Y256) (Q9Y256 whole entry): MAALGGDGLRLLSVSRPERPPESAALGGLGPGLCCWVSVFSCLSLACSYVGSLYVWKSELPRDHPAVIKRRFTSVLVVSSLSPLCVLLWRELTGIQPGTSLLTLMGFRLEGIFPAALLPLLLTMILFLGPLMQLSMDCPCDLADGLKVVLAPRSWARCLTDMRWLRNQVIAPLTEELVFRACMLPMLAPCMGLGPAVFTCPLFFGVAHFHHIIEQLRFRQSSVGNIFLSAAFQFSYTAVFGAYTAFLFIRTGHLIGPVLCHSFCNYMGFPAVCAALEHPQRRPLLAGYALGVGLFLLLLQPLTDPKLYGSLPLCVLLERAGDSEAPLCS
Sequence of Trypsin (P00761 whole entry): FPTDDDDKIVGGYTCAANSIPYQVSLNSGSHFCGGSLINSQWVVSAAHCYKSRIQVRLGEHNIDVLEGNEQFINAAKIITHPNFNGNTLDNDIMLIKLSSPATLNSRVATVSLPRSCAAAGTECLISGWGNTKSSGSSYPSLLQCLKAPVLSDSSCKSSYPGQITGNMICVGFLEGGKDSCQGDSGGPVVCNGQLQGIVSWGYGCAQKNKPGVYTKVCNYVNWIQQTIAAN
T3 sequence (P49327 whole entry): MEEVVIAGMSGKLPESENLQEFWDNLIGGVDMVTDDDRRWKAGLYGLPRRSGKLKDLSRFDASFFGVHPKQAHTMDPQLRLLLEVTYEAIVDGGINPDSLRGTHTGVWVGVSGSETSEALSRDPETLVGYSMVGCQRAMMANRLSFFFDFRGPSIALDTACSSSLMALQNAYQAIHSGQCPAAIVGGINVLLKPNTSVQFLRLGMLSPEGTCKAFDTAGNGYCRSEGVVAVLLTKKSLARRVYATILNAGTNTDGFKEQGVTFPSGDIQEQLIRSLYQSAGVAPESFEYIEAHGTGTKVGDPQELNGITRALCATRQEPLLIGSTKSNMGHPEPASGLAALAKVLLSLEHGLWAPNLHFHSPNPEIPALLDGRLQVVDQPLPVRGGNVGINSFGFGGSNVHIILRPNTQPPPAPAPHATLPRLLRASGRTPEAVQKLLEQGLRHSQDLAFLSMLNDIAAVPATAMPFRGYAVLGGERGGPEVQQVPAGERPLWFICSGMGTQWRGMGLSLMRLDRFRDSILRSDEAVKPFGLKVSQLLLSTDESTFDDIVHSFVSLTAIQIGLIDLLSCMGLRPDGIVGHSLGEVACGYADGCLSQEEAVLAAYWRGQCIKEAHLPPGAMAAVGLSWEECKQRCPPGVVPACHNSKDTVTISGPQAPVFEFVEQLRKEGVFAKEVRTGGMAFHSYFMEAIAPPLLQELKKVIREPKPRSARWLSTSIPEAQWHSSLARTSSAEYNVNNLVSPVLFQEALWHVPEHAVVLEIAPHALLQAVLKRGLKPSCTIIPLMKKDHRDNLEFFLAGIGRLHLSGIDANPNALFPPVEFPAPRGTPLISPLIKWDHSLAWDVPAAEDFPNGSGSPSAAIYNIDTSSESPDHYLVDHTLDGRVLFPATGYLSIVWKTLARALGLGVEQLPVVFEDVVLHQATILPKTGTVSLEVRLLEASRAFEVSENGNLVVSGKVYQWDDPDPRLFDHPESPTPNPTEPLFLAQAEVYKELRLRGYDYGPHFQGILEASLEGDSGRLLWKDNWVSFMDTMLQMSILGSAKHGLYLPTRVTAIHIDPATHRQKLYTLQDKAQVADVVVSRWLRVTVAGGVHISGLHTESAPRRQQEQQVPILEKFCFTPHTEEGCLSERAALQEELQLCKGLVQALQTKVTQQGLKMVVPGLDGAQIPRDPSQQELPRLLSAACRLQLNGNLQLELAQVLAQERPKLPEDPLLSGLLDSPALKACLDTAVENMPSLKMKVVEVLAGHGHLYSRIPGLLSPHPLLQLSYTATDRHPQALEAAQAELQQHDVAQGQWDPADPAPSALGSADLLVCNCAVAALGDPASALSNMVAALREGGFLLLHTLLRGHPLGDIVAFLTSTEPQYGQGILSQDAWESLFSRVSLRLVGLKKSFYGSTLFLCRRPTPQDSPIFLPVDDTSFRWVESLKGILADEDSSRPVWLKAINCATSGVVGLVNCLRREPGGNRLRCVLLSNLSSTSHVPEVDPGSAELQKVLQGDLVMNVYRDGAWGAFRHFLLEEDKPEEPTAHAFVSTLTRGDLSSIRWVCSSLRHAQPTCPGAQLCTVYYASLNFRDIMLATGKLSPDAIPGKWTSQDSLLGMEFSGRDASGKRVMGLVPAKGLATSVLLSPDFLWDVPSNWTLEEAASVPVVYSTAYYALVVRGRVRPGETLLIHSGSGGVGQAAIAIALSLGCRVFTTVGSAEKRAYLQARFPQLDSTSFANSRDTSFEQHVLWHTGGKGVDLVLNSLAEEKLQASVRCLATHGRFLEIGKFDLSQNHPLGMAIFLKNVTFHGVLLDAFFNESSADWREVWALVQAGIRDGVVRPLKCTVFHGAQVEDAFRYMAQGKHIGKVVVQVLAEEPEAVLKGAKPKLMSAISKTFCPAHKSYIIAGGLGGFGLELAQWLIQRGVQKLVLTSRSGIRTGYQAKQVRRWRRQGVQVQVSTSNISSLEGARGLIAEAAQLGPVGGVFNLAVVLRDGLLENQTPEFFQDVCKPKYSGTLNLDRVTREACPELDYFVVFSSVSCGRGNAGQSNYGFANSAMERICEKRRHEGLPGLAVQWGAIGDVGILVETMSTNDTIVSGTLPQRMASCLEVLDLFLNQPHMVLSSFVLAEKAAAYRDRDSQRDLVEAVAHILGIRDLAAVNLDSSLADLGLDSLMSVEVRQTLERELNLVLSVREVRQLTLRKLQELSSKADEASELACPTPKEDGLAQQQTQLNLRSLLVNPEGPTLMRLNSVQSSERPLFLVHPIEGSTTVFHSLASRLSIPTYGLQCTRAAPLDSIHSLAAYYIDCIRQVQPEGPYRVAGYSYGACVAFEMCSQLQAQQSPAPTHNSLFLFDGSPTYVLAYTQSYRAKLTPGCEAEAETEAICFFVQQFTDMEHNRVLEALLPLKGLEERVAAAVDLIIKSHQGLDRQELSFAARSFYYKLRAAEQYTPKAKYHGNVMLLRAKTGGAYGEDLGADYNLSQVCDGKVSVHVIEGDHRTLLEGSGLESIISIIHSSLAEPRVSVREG
Sequence of NS3 (A3EZJ3 whole entry): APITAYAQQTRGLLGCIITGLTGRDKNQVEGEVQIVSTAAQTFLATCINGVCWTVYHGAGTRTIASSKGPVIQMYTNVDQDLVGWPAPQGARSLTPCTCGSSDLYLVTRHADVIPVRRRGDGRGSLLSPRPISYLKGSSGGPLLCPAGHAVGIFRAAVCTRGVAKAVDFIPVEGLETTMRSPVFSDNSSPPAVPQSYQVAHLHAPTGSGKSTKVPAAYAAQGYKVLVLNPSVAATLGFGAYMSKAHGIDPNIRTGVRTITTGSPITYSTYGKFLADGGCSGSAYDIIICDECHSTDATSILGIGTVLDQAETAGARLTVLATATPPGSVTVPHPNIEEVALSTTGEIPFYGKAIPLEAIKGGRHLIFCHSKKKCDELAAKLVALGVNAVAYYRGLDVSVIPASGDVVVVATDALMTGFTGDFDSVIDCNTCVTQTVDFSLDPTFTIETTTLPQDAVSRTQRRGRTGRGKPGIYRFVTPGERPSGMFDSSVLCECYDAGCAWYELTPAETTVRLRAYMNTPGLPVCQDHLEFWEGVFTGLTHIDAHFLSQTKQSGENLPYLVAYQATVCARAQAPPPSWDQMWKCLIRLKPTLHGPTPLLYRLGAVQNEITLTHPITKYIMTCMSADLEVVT
Sequence of 1-phosphatidylinositol 4,5-bisphosphate phosphodiesterase beta-3 (Q01970 whole entry): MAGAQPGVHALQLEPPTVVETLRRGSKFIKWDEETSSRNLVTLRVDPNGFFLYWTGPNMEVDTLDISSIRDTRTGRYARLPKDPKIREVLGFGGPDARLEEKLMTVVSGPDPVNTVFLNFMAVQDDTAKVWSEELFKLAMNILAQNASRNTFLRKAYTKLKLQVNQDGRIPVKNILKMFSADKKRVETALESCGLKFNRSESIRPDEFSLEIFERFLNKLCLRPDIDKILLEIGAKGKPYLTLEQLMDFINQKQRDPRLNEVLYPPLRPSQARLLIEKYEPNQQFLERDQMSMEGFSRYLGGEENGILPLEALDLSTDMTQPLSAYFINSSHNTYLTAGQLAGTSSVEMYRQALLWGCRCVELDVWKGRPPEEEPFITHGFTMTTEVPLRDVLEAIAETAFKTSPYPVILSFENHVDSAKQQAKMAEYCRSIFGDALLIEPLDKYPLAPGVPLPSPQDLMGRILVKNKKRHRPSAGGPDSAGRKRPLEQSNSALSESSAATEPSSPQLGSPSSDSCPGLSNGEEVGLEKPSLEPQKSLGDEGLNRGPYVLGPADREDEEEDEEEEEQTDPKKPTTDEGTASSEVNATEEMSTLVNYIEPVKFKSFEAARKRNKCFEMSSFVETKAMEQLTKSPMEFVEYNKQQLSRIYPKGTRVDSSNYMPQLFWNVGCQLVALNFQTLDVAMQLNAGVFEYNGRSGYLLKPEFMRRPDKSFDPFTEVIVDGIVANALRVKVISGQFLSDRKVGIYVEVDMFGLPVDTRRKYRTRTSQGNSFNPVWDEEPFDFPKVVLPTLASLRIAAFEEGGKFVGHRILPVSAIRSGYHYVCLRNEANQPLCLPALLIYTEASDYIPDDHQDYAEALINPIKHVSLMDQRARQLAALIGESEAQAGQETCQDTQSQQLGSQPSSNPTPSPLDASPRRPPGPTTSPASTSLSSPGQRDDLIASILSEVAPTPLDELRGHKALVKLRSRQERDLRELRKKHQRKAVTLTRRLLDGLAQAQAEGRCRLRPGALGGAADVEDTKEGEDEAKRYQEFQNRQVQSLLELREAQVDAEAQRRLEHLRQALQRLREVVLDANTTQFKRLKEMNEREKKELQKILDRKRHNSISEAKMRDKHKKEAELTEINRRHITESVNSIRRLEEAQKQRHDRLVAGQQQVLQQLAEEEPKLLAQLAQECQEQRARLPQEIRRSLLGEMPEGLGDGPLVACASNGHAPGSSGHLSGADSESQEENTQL

Structure (SMILES): Cc1cccc(-c2oc3ccccc3c2C#CCCCCO)c1
- EC50 [1]: 4.57 µM (active)
- EC50 [2]: > 150 µM (not active)
- EC50 [3]: 7.64 µM (active)
- AC50 [4]: 6.31 µM (active)
- AC50 [5]: 3.53 µM (active)
- AC50 [6]: 7.08 µM (active)
- AC50 [7]: 3.56 µM (active)
- AC50 [8]: 12.9 µM (active)

Structure (SMILES): O=C(Nc1nnc(-c2ccc(F)cc2)o1)c1cccc([N+](=O)[O-])c1
- EC50 [9]: > 150 µM (inactive)
- EC50 [10]: 0.601 µM (active)
- EC50 [11]: > 180 µM (inactive)
- CC50 [12]: 11.4 µM (active)
- EC50 [13]: > 150 µM (inactive)
- IC50 [14]: 11.9 µM (active)
- IC50 [15]: 9.09 µM (active)

Structure (SMILES): CCOc1ccc(S(=O)(=O)Nc2cc(OC)c(OC)cc2C(=O)O)cc1
- AC50 [5]: 7.53 µM (active)
- AC50 [6]: 9.8 µM (active)
- AC50 [8]: 4.23 µM (active)

Structure (SMILES): C=C1c2cccc(O)c2C(=O)C2=C(O)[C@]3(O)C(=O)C(C(N)=O)=C(O)[C@@H](N(C)C)[C@@H]3[C@@H](O)[C@H]12 [METHACYCLINE HYDROCHLORIDE]
- EC50 [1]: 0.099 µM (active)
- IC50 [16]: > 109 µM (not active)
- EC50 [17]: > 100 µM (active)
- EC50 [3]: 0.109 µM (active)
- IC50 [18]: 66.8 µM (active)
- IC50 [19]: > 122 µM (inactive)
- IC50 [20]: > 122 µM (inactive)
- AC50 [21]: 29.5 µM (active)
- AC50 [22]: 0.707 µM (active)
